According to patent US20100298141A1, “SUBSTITUTED PYRIDINE N-OXIDE HERBICIDES” (E. I. DU PONT DE NEMOURS AND COMPANY, priority 2007, published 2010):

Assays:
[1] = tested on: bermudagrass; assay: Test C pre-/postemergence test; assay type: in vivo, Cynodon dactylon
In short: (§1)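 Compounds in a non-phytotoxic solvent with surfactant applied preemergence to seeded pots and, at the same time, postemergence to plants 2–18 cm tall (1- to 4-leaf stage). Paddy tests: pots flooded to 3 cm, compound applied into the water, depth held throughout.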

[2] = tested on: green foxtail; assay: Test C pre-/postemergence test; assay type: in vivo, Setaria viridis
In short: as §1

[3] = tested on: umbrella sedge; assay: Test C flooded paddy test; assay type: in vivo, Cyperus difformis; conditions: Flood
In short: (§2)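 Pots were flooded to 3 cm above the soil surface at treatment, compound applied directly to the paddy water, and that depth held throughout. Plants were kept in a greenhouse for 13 to 15 days, then visually rated against untreated controls.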

[4] = tested on: velvetleaf; assay: Test A pre-/postemergence greenhouse test; assay type: in vivo, Abutilon theophrasti; conditions: for Plant response rating, Velvetleaf: 0 to 100 scale where 0 is no effect and 100 is complete control; for Velvetleaf plant response rating: 0 to 100 scale
In short: (§3)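 Greenhouse herbicide screen, pre- and postemergence in parallel. Soil: loam plus sand. Formulation: non-phytotoxic solvent mix with surfactant. Postemergence stage: one to two leaves, 2–10 cm height. Evaluation: visual injury, compared with untreated controls, about 10 days after treatment.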

[5] = tested on: corn; assay: Test A pre-/postemergence greenhouse test; assay type: in vivo, Zea mays; conditions: for Plant response rating, Corn: 0 to 100 scale where 0 is no effect and 100 is complete control; for Corn plant response rating: 0 to 100 scale
In short: as §3

[6] = tested on: johnsongrass; assay: Test C pre-/postemergence test; assay type: in vivo, Sorghum halepense
In short: as §1

[7] = tested on: corn; assay: Test C pre-/postemergence test; assay type: in vivo, Zea mays
In short: as §1

[8] = tested on: duck salad; assay: Test C flooded paddy test; assay type: in vivo, Heteranthera limosa; conditions: Flood
In short: as §2

[9] = tested on: crabgrass; assay: Test A pre-/postemergence greenhouse test; assay type: in vivo, Digitaria sanguinalis; conditions: for Plant response rating, Crabgrass, Large: 0 to 100 scale where 0 is no effect and 100 is complete control; for Crabgrass, Large plant response rating: 0 to 100 scale
In short: as §3

[10] = tested on: pigweed; assay: Test C pre-/postemergence test; assay type: in vivo, Amaranthus retroflexus; conditions: for Pigweed plant response rating: preemergence, scale 0 (no effect) to 100 (complete control); for Plant response rating (0 to 100), Pigweed / Plant response rating, Pigweed: Postemergence; for Plant response rating, Pigweed: scale 0 to 100, 0 no effect, 100 complete control
In short: as §1

[11] = tested on: barnyardgrass; assay: Test C flooded paddy test; assay type: in vivo, Echinochloa crus-galli; conditions: Flood
In short: as §2

[12] = tested on: Goosegrass; assay: Test C pre-/postemergence test; assay type: in vivo, Eleusin indica
In short: as §1

[13] = tested on: yellow nutsedge; assay: Test C pre-/postemergence test; assay type: in vivo, Cyperus esculentus
In short: as §1

[14] = tested on: crabgrass; assay: Test C pre-/postemergence test; assay type: in vivo, Digitaria sanguinalis
In short: as §1

[15] = tested on: soybean; assay: Test C pre-/postemergence test; assay type: in vivo, Glycine max
In short: as §1

[16] = tested on: Italian ryegrass; assay: Test C pre-/postemergence test; assay type: in vivo, Lolium multiflorum
In short: as §1

[17] = tested on: barnyardgrass; assay: Test A pre-/postemergence greenhouse test; assay type: in vivo, Echinochloa crus-galli; conditions: for Plant response rating, Barnyardgrass: 0 to 100 scale where 0 is no effect and 100 is complete control; for Barnyardgrass plant response rating: 0 to 100 scale
In short: as §3

[18] = 125 g ai/ha, preemergence, scale 0 (no effect) to 100 (complete control)
[19] = Postemergence, 125 g ai/ha, scale 0 to 100, 0 no effect, 100 complete control
[20] = Postemergence, 250 g ai/ha, scale 0 to 100, 0 no effect, 100 complete control
[21] = Preemergence, 31 g ai/ha, scale 0 to 100 (0 no effect, 100 complete control)
[22] = preemergence, 250 g ai/ha, scale 0 (no effect) to 100 (complete control)
[23] = 62 g ai/ha, Preemergence, scale 0 to 100
[24] = 62 g ai/ha, scale 0 to 100 (0 no effect, 100 complete control)
[25] = 250 g ai/ha, scale 0 to 100, 0 no effect, 100 complete control, 13 to 15 days
[26] = Postemergence, 500 g ai/ha, 0 is no effect, 100 is complete control
[27] = Preemergence, 125 g ai/ha, 0 no effect, 100 complete control

Cn1nc(C(F)(F)C(F)(F)F)c(C[S+]([O-])c2cccc[n+]2[O-])c1OCC(F)(F)F (centres unmarked) [Compound 79]
Bermudagrass plant response rating ([1]; 62 g ai/ha, Preemergence, scale 0 to 100 (0 no effect, 100 complete control)): 100
Bermudagrass plant response rating [1, 18]: 100
Plant response rating (0 to 100), Bermudagrass ([1]; Postemergence, 31 g ai/ha): 0
Plant response rating (0 to 100), Bermudagrass ([1]; Postemergence, 62 g ai/ha): 0
Plant response rating, Bermudagrass [1, 19]: 45
Plant response rating, Bermudagrass [1, 20]: 50
Plant response rating, Bermudagrass [1, 21]: 95
Bermudagrass plant response rating [1, 22]: 100
Foxtail, Green plant response rating [2, 23]: 85
Foxtail, Green plant response rating [2, 18]: 100
Plant response rating (0 to 100), Foxtail, Green ([2]; Postemergence, 31 g ai/ha): 0
Plant response rating (0 to 100), Foxtail, Green ([2]; Postemergence, 62 g ai/ha): 60
Plant response rating, Foxtail, Green [2, 19]: 70
Plant response rating, Foxtail, Green [2, 20]: 85
Plant response rating, Foxtail, Green [2, 21]: 65
Foxtail, Green plant response rating [2, 22]: 100
Plant response rating, Sedge, Umbrella [3, 24]: 90
Plant response rating, Sedge, Umbrella [3, 25]: 100
Plant response rating, Velvetleaf ([4]; Postemergence, 125 g ai/ha): 60
Velvetleaf plant response rating [4, 26]: 80
Velvetleaf plant response rating [4, 27]: 80
Plant response rating, Velvetleaf ([4]; Preemergence, 500 g ai/ha): 100
Plant response rating, Corn ([5]; Postemergence, 125 g ai/ha): 20
Corn plant response rating [5, 26]: 80
Corn plant response rating [5, 27]: 0
Plant response rating, Corn ([5]; Preemergence, 500 g ai/ha): 80
Johnsongrass plant response rating [6, 23]: 95
Johnsongrass plant response rating [6, 18]: 95
Plant response rating (0 to 100), Johnsongrass ([6]; Postemergence, 31 g ai/ha): 0
Plant response rating (0 to 100), Johnsongrass ([6]; Postemergence, 62 g ai/ha): 20
Plant response rating, Johnsongrass [6, 19]: 25
Plant response rating, Johnsongrass [6, 20]: 50
Plant response rating, Johnsongrass [6, 21]: 80
Johnsongrass plant response rating [6, 22]: 95
Corn plant response rating [7, 23]: 100
Corn plant response rating [7, 18]: 100
Plant response rating (0 to 100), Corn ([7]; Postemergence, 31 g ai/ha): 0
Plant response rating (0 to 100), Corn ([7]; Postemergence, 62 g ai/ha): 25
Plant response rating, Corn [7, 19]: 60
Plant response rating, Corn [7, 20]: 60
Plant response rating, Corn [7, 21]: 60
Corn plant response rating [7, 22]: 100
Plant response rating, Ducksalad [8, 24]: 90
Plant response rating, Ducksalad [8, 25]: 100
Plant response rating, Crabgrass, Large ([9]; Postemergence, 125 g ai/ha): 70
Crabgrass, Large plant response rating [9, 26]: 90
Crabgrass, Large plant response rating [9, 27]: 70
Plant response rating, Crabgrass, Large ([9]; Preemergence, 500 g ai/ha): 100
Pigweed plant response rating ([10]; 125 g ai/ha): 70
Plant response rating (0 to 100), Pigweed ([10]; 31 g ai/ha): 0
Plant response rating (0 to 100), Pigweed ([10]; 62 g ai/ha): 0
Plant response rating, Pigweed ([10]; 125 g ai/ha): 20
Plant response rating, Pigweed ([10]; 250 g ai/ha): 60
Pigweed plant response rating ([10]; 250 g ai/ha): 100
Plant response rating, Barnyardgrass [11, 24]: 0
Plant response rating, Barnyardgrass [11, 25]: 70
Goosegrass plant response rating [12, 23]: 75
Goosegrass plant response rating [12, 18]: 100
Plant response rating (0 to 100), Goosegrass ([12]; Postemergence, 31 g ai/ha): 0
Plant response rating (0 to 100), Goosegrass ([12]; Postemergence, 62 g ai/ha): 0
Plant response rating, Goosegrass [12, 19]: 40
Plant response rating, Goosegrass [12, 20]: 50
Plant response rating, Goosegrass [12, 21]: 70
Goosegrass plant response rating [12, 22]: 100
Nutsedge, Yellow plant response rating [13, 23]: 75
Nutsedge, Yellow plant response rating [13, 18]: 90
Plant response rating (0 to 100), Nutsedge, Yellow ([13]; Postemergence, 31 g ai/ha): 0
Plant response rating (0 to 100), Nutsedge, Yellow ([13]; Postemergence, 62 g ai/ha): 0
Plant response rating, Nutsedge, Yellow [13, 19]: 0
Plant response rating, Nutsedge, Yellow [13, 20]: 10
Plant response rating, Nutsedge, Yellow [13, 21]: 0
Nutsedge, Yellow plant response rating [13, 22]: 100
Crabgrass, Large plant response rating [14, 23]: 80
Crabgrass, Large plant response rating [14, 18]: 100
Plant response rating (0 to 100), Crabgrass, Large ([14]; Postemergence, 31 g ai/ha): 0
Plant response rating (0 to 100), Crabgrass, Large ([14]; Postemergence, 62 g ai/ha): 0
Plant response rating, Crabgrass, Large [14, 19]: 0
Plant response rating, Crabgrass, Large [14, 20]: 50
Plant response rating, Crabgrass, Large [14, 21]: 40
Crabgrass, Large plant response rating [14, 22]: 100
Soybean plant response rating [15, 23]: 60
Plant response rating (0 to 100), Soybean ([15]; Postemergence, 31 g ai/ha): 50
Plant response rating (0 to 100), Soybean ([15]; Postemergence, 62 g ai/ha): 55
Plant response rating, Soybean [15, 19]: 60
Plant response rating, Soybean [15, 21]: 60
Soybean plant response rating [15, 22]: 80
Ryegrass, Italian plant response rating [16, 23]: 60
Ryegrass, Italian plant response rating [16, 18]: 100
Plant response rating (0 to 100), Ryegrass, Italian ([16]; Postemergence, 31 g ai/ha): 0
Plant response rating (0 to 100), Ryegrass, Italian ([16]; Postemergence, 62 g ai/ha): 40
Plant response rating, Ryegrass, Italian [16, 19]: 60
Plant response rating, Ryegrass, Italian [16, 20]: 100
Plant response rating, Ryegrass, Italian [16, 21]: 40
Ryegrass, Italian plant response rating [16, 22]: 100
Plant response rating, Barnyardgrass ([17]; Postemergence, 125 g ai/ha): 80
Barnyardgrass plant response rating [17, 26]: 90
Barnyardgrass plant response rating [17, 27]: 100
Plant response rating, Barnyardgrass ([17]; Preemergence, 500 g ai/ha): 100
